Results published in US11912701B2, “Protein kinase inhibitors for promoting liver regeneration or reducing or preventing hepatocyte death” (HEPAREGENIX GMBH, priority 2018, dated 2024).

Tests used:
Format in all cases: biochemical
MKK4 = target: T1, MKK4 (Homo sapiens, UniProt P45985); test: 33PanQinase enzyme assay, MKK4; settings: assay 'IC50'; read-out: Potency MKK4 (IC50)
T1 construct: purchased ProQinase GmbH, Freiburg, Germany (33PanQinase Assay Service)
T1 sequence (P45985 1-399): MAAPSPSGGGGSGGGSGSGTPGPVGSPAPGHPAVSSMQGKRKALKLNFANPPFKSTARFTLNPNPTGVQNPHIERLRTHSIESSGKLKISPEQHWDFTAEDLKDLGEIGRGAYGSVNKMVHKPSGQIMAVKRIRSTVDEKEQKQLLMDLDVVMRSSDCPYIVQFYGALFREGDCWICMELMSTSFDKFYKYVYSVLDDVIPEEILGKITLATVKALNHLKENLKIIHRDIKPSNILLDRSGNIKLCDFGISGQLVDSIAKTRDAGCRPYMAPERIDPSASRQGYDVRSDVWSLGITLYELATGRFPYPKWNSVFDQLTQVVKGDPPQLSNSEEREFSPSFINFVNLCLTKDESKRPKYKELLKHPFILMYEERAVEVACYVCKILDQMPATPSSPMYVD
Method in brief: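 Inhibition measured as 33Pi transfer to substrate after a 60-min, 30 °C reaction, acid-stopped and scintillation-counted.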

BRaf = target: T2, BRaf (Homo sapiens, UniProt P15056); test: 33PanQinase enzyme assay, BRaf; settings: ratio IC50(BRaf)/IC50(MKK4)
T2 construct: purchased ProQinase GmbH, Freiburg, Germany (33PanQinase Assay Service)
T2 sequence (P15056 whole entry, species assumed): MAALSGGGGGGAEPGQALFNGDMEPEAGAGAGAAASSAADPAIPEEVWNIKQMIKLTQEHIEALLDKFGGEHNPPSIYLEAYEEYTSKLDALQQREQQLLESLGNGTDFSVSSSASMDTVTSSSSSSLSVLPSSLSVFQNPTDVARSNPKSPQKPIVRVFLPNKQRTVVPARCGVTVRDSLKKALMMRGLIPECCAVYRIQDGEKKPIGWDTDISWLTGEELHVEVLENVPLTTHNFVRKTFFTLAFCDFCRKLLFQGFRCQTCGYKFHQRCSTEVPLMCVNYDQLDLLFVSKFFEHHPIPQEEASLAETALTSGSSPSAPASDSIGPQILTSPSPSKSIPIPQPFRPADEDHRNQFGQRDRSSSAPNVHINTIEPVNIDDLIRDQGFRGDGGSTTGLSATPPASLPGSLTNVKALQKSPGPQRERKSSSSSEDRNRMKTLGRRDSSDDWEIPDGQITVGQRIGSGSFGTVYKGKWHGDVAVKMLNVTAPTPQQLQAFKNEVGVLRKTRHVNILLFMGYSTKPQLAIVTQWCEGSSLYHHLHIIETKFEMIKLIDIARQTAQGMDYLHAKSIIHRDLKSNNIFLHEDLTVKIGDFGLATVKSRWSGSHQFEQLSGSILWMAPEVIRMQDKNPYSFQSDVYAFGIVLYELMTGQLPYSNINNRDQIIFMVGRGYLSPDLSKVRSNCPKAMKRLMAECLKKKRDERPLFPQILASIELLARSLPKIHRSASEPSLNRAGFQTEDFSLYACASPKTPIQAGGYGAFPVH
Method in brief: (§1)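 Off-target selectivity is the ratio IC50(off-target)/IC50(MKK4), with IC50 values from least-squares fitting and single-point data as % residual activity. Reactions of enzyme/substrate mix, ATP and compound ran 60 min at 30° C before H3PO4 stop; ^33P incorporation read on a scintillation counter.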

JNK1 = JNK1 (Homo sapiens, UniProt P45983); test: 33PanQinase enzyme assay, JNK1; parameters: purchased ProQinase GmbH, Freiburg, Germany (33PanQinase Assay Service); settings: ratio IC50(JNK1)/IC50(MKK4)
Sequence of JNK1 (P45983 whole entry): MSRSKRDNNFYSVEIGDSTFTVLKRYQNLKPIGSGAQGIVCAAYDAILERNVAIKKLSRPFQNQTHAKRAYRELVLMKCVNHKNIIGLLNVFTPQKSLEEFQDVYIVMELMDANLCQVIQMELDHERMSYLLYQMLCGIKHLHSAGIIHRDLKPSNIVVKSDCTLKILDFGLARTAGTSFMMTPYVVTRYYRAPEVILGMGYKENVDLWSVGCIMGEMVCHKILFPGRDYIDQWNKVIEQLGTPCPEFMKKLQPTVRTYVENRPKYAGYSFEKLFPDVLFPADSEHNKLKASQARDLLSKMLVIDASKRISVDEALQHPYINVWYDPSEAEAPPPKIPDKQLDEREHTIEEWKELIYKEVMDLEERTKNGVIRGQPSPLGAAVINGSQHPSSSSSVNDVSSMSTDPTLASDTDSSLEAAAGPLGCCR
Method in brief: as §1

MKK7 = target: T3, MKK7 (Homo sapiens, UniProt O14733); test: 33PanQinase enzyme assay, MKK7; parameters: purchased ProQinase GmbH, Freiburg, Germany (33PanQinase Assay Service); settings: ratio IC50(MKK7)/IC50(MKK4)
T3 sequence (O14733 1-419): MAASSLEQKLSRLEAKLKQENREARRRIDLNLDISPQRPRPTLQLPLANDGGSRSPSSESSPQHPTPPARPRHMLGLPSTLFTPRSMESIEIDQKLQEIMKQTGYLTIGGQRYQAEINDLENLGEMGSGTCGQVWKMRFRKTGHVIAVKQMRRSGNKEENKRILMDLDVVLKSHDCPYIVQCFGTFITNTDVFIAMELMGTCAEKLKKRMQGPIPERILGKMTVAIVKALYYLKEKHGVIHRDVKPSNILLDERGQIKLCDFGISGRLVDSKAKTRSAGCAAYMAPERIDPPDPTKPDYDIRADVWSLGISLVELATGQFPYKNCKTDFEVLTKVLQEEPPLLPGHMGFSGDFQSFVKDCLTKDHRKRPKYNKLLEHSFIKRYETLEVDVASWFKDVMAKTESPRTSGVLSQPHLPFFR
Method in brief: as §1

CCCS(=O)(=O)Nc1c(F)ccc(C(=O)c2c[nH]c3ncc(-c4cnc(SC)nc4)cc23)c1F [Example 195, N-(2,6-difluoro-3-(5-(2-(methylthio)pyrimidin-5-yl)-1H-pyrrolo[2,3-b]pyridine-3-carbonyl)phenyl)propane-1-sulfonamide]
IC50 (MKK4): < 100 nM | Selectivity Braf, IC50(off-target)/IC50(MKK4) (BRaf): +++ (IC50(off-target)/IC50(MKK4) > 100) | Selectivity JNK1, IC50(off-target)/IC50(MKK4) (JNK1): +++ (IC50(off-target)/IC50(MKK4) > 100) | Selectivity IVIKK7, IC50(off-target)/IC50(MKK4) (MKK7): +++ (IC50(off-target)/IC50(MKK4) > 100)

CCCS(=O)(=O)Nc1c(F)ccc(C(=O)c2c[nH]c3ncc(-c4cnc(C(C)(C)C)nc4)cc23)c1F [Example 196, N-(3-(5-(2-(tert-butyl)pyrimidin-5-yl)-1H-pyrrolo[2,3-b]pyridine-3-carbonyl)-2,6-difluorophenyl)propane-1-sulfonamide]
IC50 (MKK4): < 100 nM | Selectivity Braf, IC50(off-target)/IC50(MKK4) (BRaf): +++ (IC50(off-target)/IC50(MKK4) > 100) | Selectivity JNK1, IC50(off-target)/IC50(MKK4) (JNK1): +++ (IC50(off-target)/IC50(MKK4) > 100) | Selectivity IVIKK7, IC50(off-target)/IC50(MKK4) (MKK7): +++ (IC50(off-target)/IC50(MKK4) > 100)

CCCS(=O)(=O)Nc1c(F)ccc(C(=O)c2c[nH]c3ncc(-c4cnc(SC(C)C)nc4)cc23)c1F [Example 197, N-(2,6-difluoro-3-(5-(2-(isopropylthio)pyrimidin-5-yl)-1H-pyrrolo[2,3-b]pyridine-3-carbonyl)phenyl)propane-1-sulfonamide]
IC50 (MKK4): 100 to 1000 nM | Selectivity Braf, IC50(off-target)/IC50(MKK4) (BRaf): +++ (IC50(off-target)/IC50(MKK4) > 100) | Selectivity JNK1, IC50(off-target)/IC50(MKK4) (JNK1): ++ (100 ≥ IC50(off-target)/IC50(MKK4) > 10) | Selectivity IVIKK7, IC50(off-target)/IC50(MKK4) (MKK7): +++ (IC50(off-target)/IC50(MKK4) > 100)

CCCS(=O)(=O)Nc1c(F)ccc(C(=O)c2c[nH]c3ncc(-c4cnc(N5CCN(CCO)CC5)nc4)cc23)c1F [Example 198, N-(2,6-difluoro-3-(5-(2-(4-(2-hydroxyethyl)piperazin-1-yl)pyrimidin-5-yl)-1H-pyrrolo[2,3-b]pyridine-3-carbonyl)phenyl)propane-1-sulfonamide]
IC50 (MKK4): 100 to 1000 nM | Selectivity Braf, IC50(off-target)/IC50(MKK4) (BRaf): ++ (100 ≥ IC50(off-target)/IC50(MKK4) > 10) | Selectivity JNK1, IC50(off-target)/IC50(MKK4) (JNK1): ++ (100 ≥ IC50(off-target)/IC50(MKK4) > 10) | Selectivity IVIKK7, IC50(off-target)/IC50(MKK4) (MKK7): +++ (IC50(off-target)/IC50(MKK4) > 100)

CCCS(=O)(=O)Nc1c(F)ccc(C(=O)c2c[nH]c3ncc(-c4cnc(N5CCC5)nc4)cc23)c1F [Example 199, N-(3-(5-(2-(azetidin-1-yl)pyrimidin-5-yl)-1H-pyrrolo[2,3-b]pyridine-3-carbonyl)-2,6-difluorophenyl)propane-1-sulfonamide]
IC50 (MKK4): < 100 nM | Selectivity Braf, IC50(off-target)/IC50(MKK4) (BRaf): ++ (100 ≥ IC50(off-target)/IC50(MKK4) > 10) | Selectivity JNK1, IC50(off-target)/IC50(MKK4) (JNK1): ++ (100 ≥ IC50(off-target)/IC50(MKK4) > 10) | Selectivity IVIKK7, IC50(off-target)/IC50(MKK4) (MKK7): +++ (IC50(off-target)/IC50(MKK4) > 100)

CCCS(=O)(=O)Nc1c(F)ccc(C(=O)c2c[nH]c3ncc(-c4cnc(OCCCN(C)C)nc4)cc23)c1F [Example 200, N-(3-(5-(2-(3-(dimethylamino)propoxy)pyrimidin-5-yl)-1H-pyrrolo[2,3-b]pyridine-3-carbonyl)-2,6-difluorophenyl)propane-1-sulfonamide]
IC50 (MKK4): 1000 to 10000 nM | Selectivity Braf, IC50(off-target)/IC50(MKK4) (BRaf): + (10 ≥ IC50(off-target)/IC50(MKK4) > 3) | Selectivity JNK1, IC50(off-target)/IC50(MKK4) (JNK1): + (10 ≥ IC50(off-target)/IC50(MKK4) > 3) | Selectivity IVIKK7, IC50(off-target)/IC50(MKK4) (MKK7): +++ (IC50(off-target)/IC50(MKK4) > 100)

CCCS(=O)(=O)Nc1c(F)ccc(C(=O)c2c[nH]c3ncc(-c4cnc(NCCO)nc4)cc23)c1F [Example 201, N-(2,6-difluoro-3-(5-(2-((2-hydroxyethyl)amino)pyrimidin-5-yl)-1H-pyrrolo[2,3-b]pyridine-3-carbonyl)phenyl)propane-1-sulfonamide]
IC50 (MKK4): < 100 nM | Selectivity Braf, IC50(off-target)/IC50(MKK4) (BRaf): +++ (IC50(off-target)/IC50(MKK4) > 100) | Selectivity JNK1, IC50(off-target)/IC50(MKK4) (JNK1): +++ (IC50(off-target)/IC50(MKK4) > 100) | Selectivity IVIKK7, IC50(off-target)/IC50(MKK4) (MKK7): +++ (IC50(off-target)/IC50(MKK4) > 100)
